The results in this text go back to ChEMBL document CHEMBL1201862, “PubChem BioAssay data set” (2004).

Holding throughout (experiment): NCI anticancer screen, dose series, 48 h
Assay [1] has as its system T47D.
In assay [2] the test system is M14.
The test system of assay [3] is SK-OV-3.
The test system of assay [4] is OVCAR-4.
In assay [5] the test system is HCT-116.
Assay [6] relates to U-251.
Assay [7] relates to K562.
Assay [8] relates to SF-539.
In assay [9] the test system is MOLT-4.
The test system of assay [10] is MDA-MB-231.
Assay [11] relates to MCF7.
The subject of assay [12] is LOX IMVI.
Assay [13] has as its system SW-620.
In assay [14] the test system is MDA-N.
The subject of assay [15] is A498.
Assay [16] relates to RXF 393.
Assay [17] concerns SF-268.
The test system of assay [18] is IGROV-1.
In assay [19] the test system is SK-MEL-5.
Assay [20] deals with Malme-3M.

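A five-concentration, 48-hour dose response in 96-well plates underlies each endpoint, interpolated linearly between surrounding concentrations. GI50 marks 50% less growth.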 Activity calls are given as the source filed them. Rule as the data show it: active = GI50 up to about 1.1 µM and inactive = higher.

On to `CC(C)=CCC[C@H](C)[C@H]1CC[C@@H](C)c2cc(O)c(C)cc21`, for which the GI50 in assay [1] was 16.9 µM (inactive); in [2] it was 18.4 µM (inactive); in [3] it was 19.1 µM (inactive); in assay [4] it was 15.5 µM (inactive); in assay [5], 18.4 µM (inactive); in [6], 17.1 µM (inactive). Besides, the GI50 in [7] is 20.1 µM (inactive); in assay [8], 17.8 µM (inactive); in assay [9], 21.4 µM (inactive); in assay [10], 18.2 µM (inactive); in [11] it was 17.5 µM (inactive); in assay [12], 16.3 µM (inactive). Further, the GI50 is 23.1 µM (inactive) in [13]; 17.4 µM (inactive) in assay [14]; 16.6 µM (inactive) in assay [15]; 20.7 µM (inactive) in assay [16]; 16.8 µM (inactive) in [17]; 17.1 µM (inactive) in [18]. Also, the GI50 is 16.2 µM (inactive) in assay [19] and 18.6 µM (inactive) in assay [20].

Take `NS(=O)(=O)c1ccc(NC(=S)NC=C2C(=O)c3ccccc3C2=O)cc1`: the GI50 in assay [1] is 30.8 µM (inactive); in assay [2], > 100 µM (inactive); in assay [3], > 100 µM (inactive); in assay [4], 49 µM (inactive); in assay [5], > 100 µM (inactive); in assay [6] it was 76.2 µM (inactive). Besides, the GI50 in [7] was 35.8 µM (inactive); in assay [8] it was 35.5 µM (inactive); in assay [9], 61.9 µM (inactive); in assay [10], 23.7 µM (inactive); in assay [11], 17.9 µM (inactive); in assay [12], > 100 µM (inactive). Further, the GI50 in assay [13] is > 100 µM (inactive); in [14], > 100 µM (inactive); in assay [15], 71.9 µM (inactive); in assay [16], 43.6 µM (inactive); in assay [17], 36.5 µM (inactive); in assay [18] it was 23.3 µM (inactive). Also, the GI50 in [19] was 47 µM (inactive); in assay [20], > 100 µM (inactive).

As to `O=c1[nH]c2c(c(=O)[nH]1)SSC2`, the GI50 is 11.2 µM (inactive) in assay [1]; 2 µM (inactive) in assay [2]; 21.4 µM (inactive) in assay [3]; 17.3 µM (inactive) in assay [4]; 3.14 µM (inactive) in assay [5]; 11.8 µM (inactive) in assay [6]. For the same molecule, the GI50 is 0.74 µM (active) in [7]; 3.14 µM (inactive) in assay [8]; 1.3 µM (inactive) in [9]; 2.18 µM (inactive) in [10]; 17.4 µM (inactive) in [11]; 1.34 µM (inactive) in assay [12]. Also, the GI50 in assay [13] is 7.19 µM (inactive); in assay [14] it was 1.66 µM (inactive); in assay [15], 25.7 µM (inactive); in [16], 14.5 µM (inactive); in assay [17], 3.67 µM (inactive); in [18], 22.3 µM (inactive). Besides, the figures for the GI50 in [19] and in assay [20] were 13.8 µM (inactive) and 3.9 µM (inactive), respectively.
